Literature values, collected in article PMC3689924 (Pharmacology, 2012).

Conditions: cited from earlier work

SMILES	increase in AUC with increasing dose
COC(=O)c1cnc2n1CCc1ccccc1C2=C1CCN(CCc2ccc(OCc3ccc4ccccc4n3)cc2)CC1 [laniquidar]	greater than proportional increases in AUC
O[C@@H](COc1cccc2ncccc12)CN1CCN([C@@H]2c3ccccc3[C@@H]3[C@H](c4ccccc42)C3(F)F)CC1 [zosuquidar]	greater than proportional increases in AUC
